# According to patent US20230233569A1 (Revolution Medicines, Inc., priority 2020, published 2023):
# Values joined by “and” are separate entries in the source; they are usually repeats but may differ in a detail not shown here. Identical values can stand only once. Like-named read-outs stand apart in the source and are kept apart here.
# What was measured:
# Experiment in all cases: Disruption of BRAF RBD interaction with Ras (FRET / MOA assay, with Cyclophilin A)
# Type in all cases: biochemical
# [1] = biological target: KRAS G12C (Homo sapiens, UniProt P01116+P62937, G12C)
# Excerpt: (§1) This protocol may also be executed substituting other Ras proteins or nucleotides.
# (§2) The purpose of this biochemical assay was to measure the ability of test compounds to facilitate ternary complex formation between a nucleotide-loaded K-Ras isoform and Cyclophilin A; the resulting ternary complex disrupts binding to a BRAF^RBD construct, inhibiting K-Ras signaling through a RAF effector. Data is reported as IC50 values.
# (§3) Compound was present in plate wells as a 10-point 3-fold dilution series starting at a final concentration of 30 μM. After incubation at 25° C. for 3 hours, a mixture of Anti-His Eu-W1024 and anti-GST allophycocyanin was then added to assay sample wells at final concentrations of 10 nM and 50 nM, respectively, and the reaction incubated for an additional 1.5 hours. […] Compounds that facilitate disruption of a K-Ras:RAF complex were identified as those eliciting a decrease in the TR-FRET ratio relative to DMSO control wells.
# as §2, with “BRAF^RBDD” for “BRAF^RBD”
# [2] = biological target: KRAS G12D (Homo sapiens, UniProt P01116+P62937, G12D)
# Excerpt: as §1, §2, §3
# as §2, with “BRAF^RBDD” for “BRAF^RBD”
# [3] = biological target: KRAS G12S (Homo sapiens, UniProt P01116+P62937, G12S)
# Excerpt: as §1, §2, §3
# as §2, with “BRAF^RBDD” for “BRAF^RBD”
# [4] = biological target: KRAS G12V (Homo sapiens, UniProt P01116+P62937, G12V)
# Excerpt: as §1, §2, §3
# as §2, with “BRAF^RBDD” for “BRAF^RBD”
# [5] = biological target: KRAS G13C (Homo sapiens, UniProt P01116+P62937, G13C)
# Excerpt: as §1, §2, §3
# as §2, with “BRAF^RBDD” for “BRAF^RBD”
# [6] = biological target: KRAS WT (Homo sapiens, UniProt P01116+P62937)
# Excerpt: as §1, §2, §3
# as §2, with “BRAF^RBDD” for “BRAF^RBD”
# [7] = KRAS G12C, read-out: KRAS G12C FRET data IC50
# [8] = read-out: KRAS G12D FRET data, IC50
# [9] = read-out: KRAS G12S FRET data, IC50
# [10] = KRAS G12V, read-out: KRAS G12V FRET data IC50
# [11] = KRAS G13C, read-out: KRAS G13C FRET data IC50
# [12] = KRAS WT, read-out: KRAS WT FRET data IC50
# KRAS G12D, sequence (P01116 1-169 isoform P01116-2 G12D limits assumed): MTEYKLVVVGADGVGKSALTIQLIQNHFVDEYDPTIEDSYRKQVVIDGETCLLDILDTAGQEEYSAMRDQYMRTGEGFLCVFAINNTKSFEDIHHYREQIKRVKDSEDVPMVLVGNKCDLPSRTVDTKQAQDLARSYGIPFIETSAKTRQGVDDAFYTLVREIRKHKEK
# KRAS G12D, sequence (P62937 whole entry): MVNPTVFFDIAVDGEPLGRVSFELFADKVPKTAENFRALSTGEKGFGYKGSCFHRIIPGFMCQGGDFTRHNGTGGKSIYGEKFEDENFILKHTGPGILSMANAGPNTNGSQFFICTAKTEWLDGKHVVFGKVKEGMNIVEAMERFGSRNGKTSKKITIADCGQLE
# KRAS G13C, sequence (P01116 1-169 isoform P01116-2 G13C): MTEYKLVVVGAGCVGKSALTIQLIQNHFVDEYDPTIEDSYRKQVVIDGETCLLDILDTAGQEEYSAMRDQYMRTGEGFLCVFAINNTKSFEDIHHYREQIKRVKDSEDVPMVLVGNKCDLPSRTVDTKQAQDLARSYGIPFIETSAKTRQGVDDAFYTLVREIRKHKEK
# KRAS G13C, sequence (P62937 whole entry): as the sequence (P62937 whole entry) above
# KRAS G12V, sequence (P01116 1-169 isoform P01116-2 G12V limits assumed): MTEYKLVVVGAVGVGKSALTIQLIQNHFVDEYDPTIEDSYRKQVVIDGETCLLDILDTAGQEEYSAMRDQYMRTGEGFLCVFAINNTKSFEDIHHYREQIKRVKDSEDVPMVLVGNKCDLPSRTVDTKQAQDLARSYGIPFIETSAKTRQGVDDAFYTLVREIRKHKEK
# KRAS G12V, sequence (P62937 whole entry): as the sequence (P62937 whole entry) above
# KRAS WT, sequence (P01116 1-169 isoform P01116-2 limits assumed): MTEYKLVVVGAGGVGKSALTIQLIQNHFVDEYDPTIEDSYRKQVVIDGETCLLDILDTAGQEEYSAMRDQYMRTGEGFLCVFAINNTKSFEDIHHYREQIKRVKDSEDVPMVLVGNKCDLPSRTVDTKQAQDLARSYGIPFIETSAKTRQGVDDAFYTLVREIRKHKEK
# KRAS WT, sequence (P62937 whole entry): as the sequence (P62937 whole entry) above
# KRAS G12S, sequence (P01116 1-169 isoform P01116-2 G12S limits assumed): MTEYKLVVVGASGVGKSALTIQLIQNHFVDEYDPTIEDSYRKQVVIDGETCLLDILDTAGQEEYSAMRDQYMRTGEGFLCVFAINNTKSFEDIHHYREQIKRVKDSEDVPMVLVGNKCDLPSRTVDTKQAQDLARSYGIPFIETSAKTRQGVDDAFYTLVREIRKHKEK
# KRAS G12S, sequence (P62937 whole entry): as the sequence (P62937 whole entry) above
# KRAS G12C, sequence (P01116 1-169 isoform P01116-2 G12C): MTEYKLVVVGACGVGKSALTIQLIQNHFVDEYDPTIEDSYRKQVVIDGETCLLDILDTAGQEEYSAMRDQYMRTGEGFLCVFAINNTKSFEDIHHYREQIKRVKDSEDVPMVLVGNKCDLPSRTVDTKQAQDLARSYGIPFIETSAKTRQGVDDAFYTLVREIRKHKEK
# KRAS G12C, sequence (P62937 whole entry): as the sequence (P62937 whole entry) above
Compound,"IC50 [1, 7]","IC50 [2, 8]","IC50 [3, 9]","IC50 [4, 10]","IC50 [5, 11]","IC50 [6, 12]","IC50 ([1]; KRAS G12C FRET data IC50, KRAS G12C)","IC50 ([2]; KRAS G12D FRET data, IC50)","IC50 ([3]; KRAS G12S FRET data, IC50)","IC50 ([4]; KRAS G12V FRET data IC50, KRAS G12V)","IC50 ([5]; KRAS G13C FRET data IC50, KRAS G13C)","IC50 ([6]; KRAS WT FRET data IC50, KRAS WT)","IC50 ([5]; read-out: KRAS G13C FRET data, IC50)"
C=CC(=O)N1CC[C@H](C(=O)N(C)[C@H](C(=O)N[C@H]2Cc3cc(O)cc(c3)-c3ccc4c(c3)c(c(-c3cccnc3COC)n4CC)CC(C)(C)COC(=O)[C@@H]3CCCN(N3)C2=O)C2CCCC2)C1 [Example A055],10 to 100 nM,1000 to 10000 nM,100 to 1000 nM,100 to 1000 nM,100 to 1000 nM,1000 to 10000 nM,,,,,,,
C=CC(=O)N1CCCN(C(=O)N(C)[C@H](C(=O)N[C@H]2Cc3cc(O)cc(c3)-c3ccc4c(c3)c(c(-c3ccccc3CCOC)n4CC)CC(C)(C)COC(=O)[C@@H]3CCCN(N3)C2=O)C(C)C)CC1 [Example A013],100 to 1000 nM,> 10000 nM,1000 to 10000 nM,1000 to 10000 nM,100 to 1000 nM,1000 to 10000 nM,,,,,,,
C=CC(=O)N1CC[C@H](C(=O)N(C)[C@H](C(=O)N[C@H]2Cc3cc(O)cc(c3)-c3ccc4c(c3)c(c(-c3ccccc3CN(C)C)n4CC)CC(C)(C)COC(=O)[C@@H]3CCCN(N3)C2=O)C(C)C)C1 [Example A005],10 to 100 nM,1000 to 10000 nM,100 to 1000 nM,100 to 1000 nM,100 to 1000 nM,100 to 1000 nM,,,,,,,
CCn1c(-c2ccccc2CN(C)C)c2c3cc(ccc31)-c1cc(O)cc(c1)C[C@H](NC(=O)[C@H](C(C)C)N(C)C(=O)c1ccc(NC(=O)/C=C/CN(C)C)cn1)C(=O)N1CCC[C@H](N1)C(=O)OCC(C)(C)C2 [Example A046],100 to 1000 nM,1000 to 10000 nM,> 10000 nM,1000 to 10000 nM,10 to 100 nM,> 10000 nM,,,,,,,
C=CC(=O)N1CC[C@H](C(=O)N(C)[C@H](C(=O)N[C@H]2Cc3cc(O)cc(c3)-c3ccc4c(c3)c(c(-c3ccccc3CCOC)n4C(C)(C)C#N)CC(C)(C)COC(=O)[C@@H]3CCCN(N3)C2=O)C(C)C)C1 [Example A034],100 to 1000 nM,1000 to 10000 nM,100 to 1000 nM,100 to 1000 nM,1000 to 10000 nM,1000 to 10000 nM,,,,,,,
C=CC(=O)N1CC[C@H](C(=O)N(C)[C@H](C(=O)N[C@H]2Cc3cc(O)cc(c3)-c3ccc4c(c3)c(c(-c3ccccc3[C@@H](C)OC)n4CC)CC(C)(C)COC(=O)[C@@H]3CCCN(N3)C2=O)C(C)C)C1 [Example A029],10 to 100 nM,1000 to 10000 nM,100 to 1000 nM,100 to 1000 nM,100 to 1000 nM,100 to 1000 nM,,,,,,,
C=CC(=O)N1CC[C@H](C(=O)N(C)[C@H](C(=O)N[C@H]2Cc3cc(O)cc(c3)-c3ccc4c(c3)c(c(-c3cnn(C)c3)n4CC)CC(C)(C)COC(=O)[C@@H]3CCCN(N3)C2=O)C(C)C)C1 [Example A099],100 to 1000 nM,> 10000 nM,1000 to 10000 nM,1000 to 10000 nM,1000 to 10000 nM,> 10000 nM,,,,,,,
C=CC(=O)N1CC[C@H](C(=O)N(C)[C@H](C(=O)N[C@H]2Cc3cc(O)cc(c3)-c3ccc4c(c3)c(c(-c3cccnc3CN(C)C)n4CC)CC(C)(C)COC(=O)[C@@H]3CCCN(N3)C2=O)C(C)C)C1 [Example A092],100 to 1000 nM,> 10000 nM,1000 to 10000 nM,1000 to 10000 nM,1000 to 10000 nM,1000 to 10000 nM,,,,,,,
CCn1c(-c2ccccc2CN(C)C)c2c3cc(ccc31)-c1cc(O)cc(c1)C[C@H](NC(=O)[C@H](C(C)C)N(C)C(=O)[C@H]1CCN(C(=O)/C=C/CN(C)C)C1)C(=O)N1CCC[C@H](N1)C(=O)OCC(C)(C)C2 [Example A047],10 to 100 nM,1000 to 10000 nM,100 to 1000 nM,100 to 1000 nM,100 to 1000 nM,1000 to 10000 nM,,,,,,,
C=CC(=O)N1CC[C@H](C(=O)N(C)[C@H](C(=O)N[C@H]2Cc3cc(OC(=O)CN)cc(c3)-c3ccc4c(c3)c(c(-c3ccccc3CCOC)n4CC)CC(C)(C)COC(=O)[C@@H]3CCCN(N3)C2=O)C(C)C)C1 [Example A008],100 to 1000 nM,> 10000 nM,1000 to 10000 nM,1000 to 10000 nM,1000 to 10000 nM,1000 to 10000 nM,,,,,,,
C=CC(=O)N1CC[C@H](C(=O)N(C)[C@H](C(=O)N[C@H]2Cc3cc(cc(O)c3F)-c3ccc4c(c3)c(c(-c3ccccc3CCOC)n4CC)CC(C)(C)COC(=O)[C@@H]3CCCN(N3)C2=O)C(C)C)C1 [Example A009],1000 to 10000 nM,> 10000 nM,> 10000 nM,> 10000 nM,> 10000 nM,> 10000 nM,,,,,,,
C=CC(=O)N1CC[C@H](C(=O)N(C)[C@H](C(=O)N[C@H]2Cc3cc(O)cc(c3)-c3ccc4c(c3)c(c(-c3ccc(CN(C)C)cc3COC)n4CC)CC(C)(C)COC(=O)[C@@H]3CCCN(N3)C2=O)C(C)C)C1 [Example A051],10 to 100 nM,1000 to 10000 nM,100 to 1000 nM,100 to 1000 nM,1000 to 10000 nM,1000 to 10000 nM,,,,,,,
C=CC(=O)N1CC[C@H](C(=O)N(C)[C@H](C(=O)N[C@H]2Cc3cc(OC(=O)CCC(=O)O)cc(c3)-c3ccc4c(c3)c(c(-c3ccccc3CCOC)n4CC)CC(C)(C)COC(=O)[C@@H]3CCCN(N3)C2=O)C(C)C)C1 [Example A032],10 to 100 nM and 1000 to 10000 nM,> 10000 nM,100 to 1000 nM and > 10000 nM,1000 to 10000 nM and > 10000 nM,1000 to 10000 nM and > 10000 nM,1000 to 10000 nM and > 10000 nM,,,,,,,
CCn1c(-c2cccnc2COC)c2c3cc(ccc31)-c1cc(O)cc(c1)C[C@H](NC(=O)[C@H](C(C)C)N(C)C(=O)C1CN(C(=O)C#CCN(C)C)C1)C(=O)N1CCC[C@H](N1)C(=O)OCC(C)(C)C2 [Example A097],< 10 nM,1000 to 10000 nM,100 to 1000 nM,100 to 1000 nM,< 10 nM,100 to 1000 nM,,,,,,,
C=CC(=O)N1C[C@H](C)[C@H](C(=O)N(C)[C@H](C(=O)N[C@H]2Cc3cc(O)cc(c3)-c3ccc4c(c3)c(c(-c3ccccc3CN(C)C)n4CC)CC(C)(C)COC(=O)[C@@H]3CCCN(N3)C2=O)C(C)C)C1 [Example A052],10 to 100 nM,1000 to 10000 nM,100 to 1000 nM,100 to 1000 nM,100 to 1000 nM,100 to 1000 nM,,,,,,,
C=CC(=O)N1CC[C@H](C(=O)N(C)[C@H](C(=O)N[C@H]2Cc3cc(OC(=O)NCC(=O)O)cc(c3)-c3ccc4c(c3)c(c(-c3ccccc3CCOC)n4CC)CC(C)(C)COC(=O)[C@@H]3CCCN(N3)C2=O)C(C)C)C1 [Example A036],,,,,,,1000 to 10000 nM and > 10000 nM,> 10000 nM,1000 to 10000 nM and > 10000 nM,1000 to 10000 nM and > 10000 nM,100 to 1000 nM and > 10000 nM,1000 to 10000 nM and > 10000 nM,
CCn1c(-c2ccccc2CCOC)c2c3cc(ccc31)-c1cc(O)cc(c1)C[C@H](NC(=O)[C@H](C(C)C)N(C)C(=O)C1CCN(C(=O)/C=C/CN(C)C)CC1)C(=O)N1CCC[C@H](N1)C(=O)OCC(C)(C)C2 [Example A019],100 to 1000 nM,> 10000 nM,1000 to 10000 nM,> 10000 nM,1000 to 10000 nM,1000 to 10000 nM,,,,,,,
C=CC(=O)N1CC[C@H](C(=O)N(C)[C@H](C(=O)N[C@H]2Cc3cc(O)cc(c3)-c3ccc4c(c3)c(c(-c3cccnc3COCC)n4CC)CC(C)(C)COC(=O)[C@@H]3CCCN(N3)C2=O)C(C)C)C1 [Example A044],10 to 100 nM,1000 to 10000 nM,100 to 1000 nM,100 to 1000 nM,100 to 1000 nM,1000 to 10000 nM,,,,,,,
C=CC(=O)N1CC[C@H](C(=O)N(C)[C@H](C(=O)N[C@H]2Cc3cc(O)cc(c3)-c3ccc4c(c3)c(c(-c3cnccc3[C@H](C)OC)n4CC)CC(C)(C)COC(=O)[C@@H]3CCCN(N3)C2=O)C(C)C)C1 [Example A112],< 10 nM,,,,,,,,,,,,
CCn1c(-c2cccnc2[C@H](C)OC)c2c3cc(ccc31)-c1csc(n1)C[C@H](NC(=O)[C@H](C(C)C)N(C)C(=O)O[C@H]1CCN(C)C1)C(=O)N1CCC[C@H](N1)C(=O)OCC(C)(C)C2 [Example A173],,,,,,,,,,,,,1000 to 10000 nM
C=CC(=O)N1CC[C@H](C(=O)N(C)[C@H](C(=O)N[C@H]2Cc3cc(O)cc(c3)-c3ccc4c(c3)c(c(-c3ccc(N5CCN(C)CC5)nc3)n4CC)CC(C)(C)COC(=O)[C@@H]3CCCN(N3)C2=O)C(C)C)C1 [Example A089],,> 10000 nM,,,,,,,,,,,
"C=C(C)C(=O)N1CC(N(C)C(=O)N(C)[C@H](C(=O)N[C@H]2Cc3nc(cs3)-c3ccc4c(c3)c(c(-c3cccnc3[C@H](C)OC)n4CC)CC(C)(C)COC(=O)[C@@H]3CCCN(N3)C2=O)C(C)C)C1 (atropisomer, axis not shown) [Example A360]",,1000 to 10000 nM,,,,,,,,,,,
